In patent US7109193B2, “Tricyclic diazepines tocolytic oxytocin receptor antagonists” (Wyeth, priority 2001, dated 2006):

target: T1, human vasopressin V1a receptor subtype (Homo sapiens, UniProt P37288); assay: Vasopressin binding in Chinese Hamster Ovary cell membranes expressing human vasopressin V1a subtype receptors; details: 100 nM, CHO cell membranes, [3H]Manning ligand, values without parentheses
T1 construct: host or cells: CHO cells (pZeoSV vector for the Thibonnier line)
How it was run: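 Membranes from CHO cells expressing human V1a receptor were incubated with [3H]Manning ligand (added as 20 μL of 8 nM) in pH 7.4 Tris buffer with MgCl2, BSA and protease inhibitors, 60 min at room temperature. Bound radioactivity was counted after filtration; values are percent inhibition at a stated concentration or IC50.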

T1 sequence (P37288 whole entry): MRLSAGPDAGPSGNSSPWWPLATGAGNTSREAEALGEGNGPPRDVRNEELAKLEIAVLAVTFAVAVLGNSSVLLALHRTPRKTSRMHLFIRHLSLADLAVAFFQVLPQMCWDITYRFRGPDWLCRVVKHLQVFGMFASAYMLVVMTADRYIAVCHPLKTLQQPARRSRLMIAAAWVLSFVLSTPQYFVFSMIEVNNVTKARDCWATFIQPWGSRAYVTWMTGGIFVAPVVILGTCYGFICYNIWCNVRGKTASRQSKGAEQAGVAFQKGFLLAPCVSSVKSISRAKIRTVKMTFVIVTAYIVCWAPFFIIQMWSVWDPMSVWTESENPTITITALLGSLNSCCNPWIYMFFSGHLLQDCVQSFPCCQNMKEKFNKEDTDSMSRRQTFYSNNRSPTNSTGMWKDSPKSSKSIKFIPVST

First: COc1ccccc1-c1ccc(C(=O)N2Cc3ccc(C(=O)N(C)CCCN(C)C)n3Cc3ccccc32)cc1 [Example 103, N-[3-(Dimethylamino)propyl]-10-[(2′-methoxy[1,1′-biphenyl]-4-yl)carbonyl]-N-methyl-10,11-dihydro-5H-pyrrolo[2,1-c][1,4]benzodiazepine-3-carboxamide]
Second: COc1ccccc1-c1ccc(C(=O)N2Cc3ccc(C(=O)NCCCN(C)C)n3Cc3ccccc32)cc1OC [Example 81, 10-[(2,2′-Dimethoxy[1,1′-biphenyl]-4-yl)carbonyl]-N-[3-(dimethylamino)propyl]-10,11-dihydro-5H-pyrrolo[2,1-c][1,4]benzodiazepine-3-carboxamide]
The inhibition at 0.1 µM of the first is higher: 43% for the first, 4% for the second.

Going from `COc1cccc(-c2ccc(C(=O)N3Cc4ccc(C(=O)N(C)CCN(C)C)n4Cc4ccccc43)cc2C)c1` [Example 89, N-[2-(Dimethylamino)ethyl]-10-[(3′-methoxy-2-methyl[1,1′-biphenyl]-4-yl)carbonyl]-N-methyl-10,11-dihydro-5H-pyrrolo[2,1-c][1,4]benzodiazepine-3-carboxamide] to `Cc1cc(C(=O)N2Cc3ccc(C(=O)N4CCN(CCCN(C)C)CC4)n3Cc3ccccc32)ccc1-c1ccccc1C(F)(F)F` [Example 4, [4-(3-Dimethylaminopropyl)-piperazin-1-yl]-[10-(2-methyl-2′-trifluoromethyl-[1,1′-biphenyl]-4-yl)carbonyl]-[10,11-dihydro-5H-pyrrolo[2,1-c][1,4]benzodiazepin-3-yl]-methanone], the inhibition at 0.1 µM falls from 50% to 14%.

same assay, conditions: CHO cell membranes, [3H]Manning ligand, values in parentheses

Compared with `COc1cc(C(=O)N2Cc3ccc(C(=O)N(C)CCCN(C)C)n3Cc3ccccc32)ccc1-c1ccccc1C(F)(F)F` [Example 21, N-Methyl-[N-(3-dimethylamino)propyl]-10-{[2-methoxy-2′-trifluoromethyl-[1,1′-biphenyl]-4-yl]carbonyl}-10,11-dihydro-5H-pyrrolo[2,1-c][1,4]benzodiazepin-3-carboxamide], `Cc1cc(C(=O)N2Cc3ccc(C(=O)N4CCN(CCN(C)C)CC4)n3Cc3ccccc32)ccc1-c1ccccc1C(F)(F)F` [Example 196, {4-[2-(Dimethylamino)ethyl]-1-piperazinyl}(10-{[2-methyl-2′-(trifluoromethyl)[1,1′-biphenyl]-4-yl]carbonyl}-10,11-dihydro-5H-pyrrolo[2,1-c][1,4]benzodiazepin-3-yl)methanone] is 3.3-fold higher in IC50: 378 nM for the first, 1240 nM for the second.

First: COc1cc(-c2ccccc2C)c(Cl)cc1C(=O)N1Cc2ccc(C(=O)N3CCN(CCN(C)C)CC3)n2Cc2ccccc21 [Example 197, {10-[(6-Chloro-3-methoxy-2′-methyl[1,1′-biphenyl]-4-yl)carbonyl]-10,11-dihydro-5H-pyrrolo[2,1-c][1,4]benzodiazepin-3-yl}{4-[2-(dimethylamino)ethyl]-1-piperazinyl}methanone]
Second: COc1ccccc1-c1ccc(C(=O)N2Cc3ccc(C(=O)N4CCN(CCCN(C)C)CC4)n3Cc3ccccc32)cc1C [Example 245, {4-[3-(Dimethylamino)propyl]-1-piperazinyl}{10-[(2′-methoxy-2-methyl[1,1′-biphenyl]-4-yl)carbonyl]-10,11-dihydro-5H-pyrrolo[2,1-c][1,4]benzodiazepin-3-yl}methanone]
The IC50 of the first is 1.8-fold lower: 524 nM for the first, 933 nM for the second.

First: COc1cc(-c2ccccc2C)c(Cl)cc1C(=O)N1Cc2ccc(C(=O)N3CCC(N4CCCCC4)CC3)n2Cc2ccccc21 [Example 110, {10-[(6-Chloro-3-methoxy-2′-methyl[1,1′-biphenyl]-4-yl)carbonyl]-10,11-dihydro-5H-pyrrolo[2,1-c][1,4]benzodiazepin-3-yl}[4-(1-piperidinyl)-1-piperidinyl]methanone]
Second: C=CCN1CCN(C(=O)c2ccc3n2Cc2ccccc2N(C(=O)c2ccc(-c4ccccc4C)c(C)c2)C3)CC1 [Example 220, (4-Allyl-1-piperazinyl){10-[(2,2′-dimethyl[1,1′-biphenyl]-4-yl)carbonyl]-10,11-dihydro-5H -pyrrolo[2,1-c][1,4]benzodiazepin-3-yl}methanone]
The IC50 of the first is 1.7-fold higher: 661 nM for the first, 387 nM for the second.

Going from `COc1cccc(-c2ccc(C(=O)N3Cc4ccc(C(=O)N5CCC[C@H]5CN5CCCC5)n4Cc4ccccc43)cc2C)c1` [Example 263, {10-[(3′-Methoxy-2-methyl[1,1′-biphenyl]-4-yl)carbonyl]-10,11-dihydro-5H-pyrrolo[2,1-c][1,4]benzodiazepin-3-yl}[(2S)-2-(1-pyrrolidinylmethyl)pyrrolidinyl]methanone] to `Cc1cc(C(=O)N2Cc3ccc(C(=O)N4CCN(C)CC4)n3Cc3ccccc32)ccc1-c1ccccc1C(F)(F)F` [Example 2, (4-Methyl-piperazin-1-yl)-[10-(2-methyl-2′-trifluoromethyl-[1,1′-biphenyl]-4-yl)-carbonyl]-10,11-dihydro-5H-pyrrolo[2,1-c][1,4]benzodiazepin-3-yl-methanone], the IC50 rises from 202 nM to 2720 nM (13-fold).

Compared with `COc1cc(-c2ccccc2F)c(Cl)cc1C(=O)N1Cc2cccn2Cc2ccccc21` [Example 18B, 10-{[6-Chloro-3-methoxy-2′-fluoro-[1,1′-biphenyl]-4-yl]carbonyl}-10,11-dihydro-5H-pyrrolo[2,1-c][1,4]benzodiazepine], `COc1cc(-c2ccccc2C(F)(F)F)c(OC)cc1C(=O)N1Cc2cccn2Cc2ccccc21` [Example 32, 10-{[3,6-Dimethoxy-2′-trifluoromethyl-[1,1′-biphenyl]-4-yl]carbonyl}-10,11-dihydro-5H-pyrrolo[2,1-c][1,4]benzodiazepine] is higher in IC50: 386 nM for the first, > 3000 nM for the second. The first is the more potent here.
